In patent US20250122225A1, “MASP-2 INHIBITORS AND METHODS OF USE” (Omeros Corporation, priority 2023, published 2025):
Counter-ions that a name gives are not always drawn.

Experiments:
MASP-2 (CCP1-CCP2-SP) = molecular target: T1, MASP-2 (CCP1-CCP2-SP) (Homo sapiens, UniProt O00187); test: Enzymatic assay for MASP-2 inhibitory activity (fluorogenic substrate); format: biochemical
T1 construct: 15 μL of Enzyme MASP-2 (CCP1-CCP2-SP) in Assay Buffer
Outline: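 MASP-2 (CCP1-CCP2-SP) cleaved a fluorogenic substrate based on the C2 cleavage site in 20 mM HEPES pH 7.4, 140 mM NaCl, 0.1% Tween 20 at room temperature. After 20 min the reaction was stopped with 0.1 M acetic acid and fluorescence read. % activity was normalized to DMSO-only and no-enzyme controls; IC50 taken as Ki.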

human α-thrombin = molecular target: T2, human α-thrombin (Homo sapiens, UniProt P00734); test: Enzymatic assay for thrombin (fluorogenic peptide substrate Boc-VPR-AMC); format: biochemical
T2 construct: enzyme (human α-thrombin (BioPharm® Lab.)) in assay buffer; purchased BioPharm® Lab
Outline: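 Human α-thrombin was run with the fluorogenic substrate Boc-VPR-AMC in 20 mM Hepes pH 7.4, 140 mM NaCl, 0.1% Tween 20 at room temperature for 20 min, then stopped with 0.1 M acetic acid. % activity was normalized to DMSO and no-enzyme controls. Under linear conditions IC50 equalled Ki, except for tight-binding inhibitors.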

T1 sequence (O00187 445-686 limits assumed): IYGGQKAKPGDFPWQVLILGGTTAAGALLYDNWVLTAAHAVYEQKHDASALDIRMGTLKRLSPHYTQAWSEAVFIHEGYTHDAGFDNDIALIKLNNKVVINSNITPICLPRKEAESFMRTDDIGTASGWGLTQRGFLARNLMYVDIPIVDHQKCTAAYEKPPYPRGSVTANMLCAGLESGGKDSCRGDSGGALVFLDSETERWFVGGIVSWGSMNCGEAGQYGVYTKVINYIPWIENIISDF
T1 sequence (O00187 287-444 partner limits assumed): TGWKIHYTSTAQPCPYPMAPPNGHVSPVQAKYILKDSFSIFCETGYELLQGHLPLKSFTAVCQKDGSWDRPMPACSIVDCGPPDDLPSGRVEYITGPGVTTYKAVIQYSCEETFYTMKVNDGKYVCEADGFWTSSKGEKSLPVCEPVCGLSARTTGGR

SMILES | Ki (MASP-2 (CCP1-CCP2-SP)) | Ki (human α-thrombin)
Cc1ccccc1CNc1ncc2n(c1=O)[C@H](C(=O)N[C@H](C)c1ccc(N)nc1)CC2 [Compound 202, (S)-N-((R)-1-(6-aminopyridin-3-yl)ethyl)-3-((2-methylbenzyl)amino)-4-oxo-4,6,7,8-tetrahydropyrrolo[1,2-a]pyrazine-6-carboxamide] | < 0.5 µM | 10 to 25 µM
Cc1cc(CNc2ncc3n(c2=O)[C@H](C(=O)N[C@H](C)c2ccc(N)nc2)CC3)cc(C(F)(F)F)c1 [Compound 203, (S)-N-((R)-1-(6-aminopyridin-3-yl)ethyl)-3-((3-methyl-5-(trifluoromethyl)benzyl)amino)-4-oxo-4,6,7,8-tetrahydropyrrolo[1,2-a]pyrazine-6-carboxamide] | < 0.5 µM | 2.5 to 10 µM
Cc1cc(F)cc(CNc2ncc3n(c2=O)[C@H](C(=O)NCc2cnc4ccccn24)CC3)c1 [Compound 204, trifluoroacetate] | 2.5 to 10 µM | > 25 µM
Cc1cc(F)cc(CNc2ncc3n(c2=O)[C@H](C(=O)NCc2ccc(CN)cc2C)CC3)c1 [Compound 205, (S)—N-(4-(aminomethyl)-2-methylbenzyl)-3-((3-fluoro-5-methylbenzyl)amino)-4-oxo-4,6,7,8-tetrahydropyrrolo[1,2-a]pyrazine-6-carboxamide trifluoroacetate] | < 0.5 µM | 2.5 to 10 µM
Cc1cc(F)cc(CNc2ncc3n(c2=O)[C@H](C(=O)NCc2c(C)cc(CN)cc2C)CC3)c1 [Compound 206, trifluoroacetate] | 0.5 to 2.5 µM | 10 to 25 µM
CC(C)c1cccc(CNc2ncc3n(c2=O)[C@H](C(=O)NCc2ccc(N)nc2)CC3)c1 [Compound 207, (S)—N-((6-aminopyridin-3-yl)methyl)-3-((3-isopropylbenzyl)amino)-4-oxo-4,6,7,8-tetrahydropyrrolo[1,2-a]pyrazine-6-carboxamide trifluoroacetate] | < 0.5 µM | < 0.5 µM
Cc1nc(N)ccc1CNC(=O)[C@@H]1CCc2cnc(NCc3cccc(C(C)C)c3)c(=O)n21 [Compound 208] | < 0.5 µM | < 0.5 µM
Cc1cc(F)cc(CNc2nc(-c3ccnn3C)c3n(c2=O)[C@H](C(=O)NCc2cc4c(s2)CNC4)CC3)c1 [Compound 209, (S)—N-((5,6-dihydro-4H-thieno[2,3-c]pyrrol-2-yl)methyl)-3-((3-fluoro-5-methylbenzyl)amino)-1-(1-methyl-1H-pyrazol-5-yl)-4-oxo-4,6,7,8-tetrahydropyrrolo[1,2-a]pyrazine-6-carboxamide trifluoroacetate] | < 0.5 µM | 2.5 to 10 µM
Cc1cc(F)cc(CNc2nc(C3CC3)c3n(c2=O)[C@H](C(=O)NCc2ccc(N)nc2C)CC3)c1 [Compound 210, (S)—N-((6-amino-2-methylpyridin-3-yl)methyl)-1-cyclopropyl-3-((3-fluoro-5-methylbenzyl)amino)-4-oxo-4,6,7,8-tetrahydropyrrolo[1,2-a]pyrazine-6-carboxamide trifluoroacetate] | < 0.5 µM | 0.5 to 2.5 µM
Cc1cc(F)cc(CNc2nc(C(C)C)c3n(c2=O)[C@H](C(=O)NCc2ccc(N)nc2C)CC3)c1 [Compound 211, (S)-N-((6-amino-2-methylpyridin-3-yl)methyl)-3-((3-fluoro-5-methylbenzyl)amino)-1-isopropyl-4-oxo-4,6,7,8-tetrahydropyrrolo[1,2-a]pyrazine-6-carboxamide trifluoroacetate] | < 0.5 µM | < 0.5 µM
Cc1cc(F)cc(CNc2nc(Cl)c3n(c2=O)[C@H](C(=O)NCc2ccc(N)nc2C)CC3)c1 [Compound 212, (S)—N-((6-amino-2-methylpyridin-3-yl)methyl)-1-chloro-3-((3-fluoro-5-methylbenzyl)amino)-4-oxo-4,6,7,8-tetrahydropyrrolo[1,2-a]pyrazine-6-carboxamide trifluoroacetate] | < 0.5 µM | 2.5 to 10 µM
Cc1cc(F)cc(CNc2nc(-c3cnn(C(F)F)c3)c3n(c2=O)[C@H](C(=O)NCc2ccc(N)nc2C)CC3)c1 [Compound 214, (S)—N-((6-amino-2-methylpyridin-3-yl)methyl)-1-(1-(difluoromethyl)-1H-pyrazol-4-yl)-3-((3-fluoro-5-methylbenzyl)amino)-4-oxo-4,6,7,8-tetrahydropyrrolo[1,2-a]pyrazine-6-carboxamide trifluoroacetate] | < 0.5 µM | > 25 µM
Cc1cc(F)cc(CNc2nc(-c3cnn(C(F)F)c3)c3n(c2=O)[C@H](C(=O)NCc2cc4cnccc4[nH]2)CC3)c1 [Compound 215, (S)-N-((1H-pyrrolo[3,2-c]pyridin-2-yl)methyl)-1-(1-(difluoromethyl)-1H-pyrazol-4-yl)-3-((3-fluoro-5-methylbenzyl)amino)-4-oxo-4,6,7,8-tetrahydropyrrolo[1,2-a]pyrazine-6-carboxamide trifluoroacetate] | < 0.5 µM | > 25 µM
Cc1cc(F)cc(CNc2nc(-c3cnn(C(F)F)c3)c3n(c2=O)[C@H](C(=O)NCc2ccc(N)nc2)CC3)c1 [Compound 216, (S)-N-((6-aminopyridin-3-yl)methyl)-1-(1-(difluoromethyl)-1H-pyrazol-4-yl)-3-((3-fluoro-5-methylbenzyl)amino)-4-oxo-4,6,7,8-tetrahydropyrrolo[1,2-a]pyrazine-6-carboxamide trifluoroacetate] | < 0.5 µM | > 25 µM

Further lines, results first:

Ki (MASP-2 (CCP1-CCP2-SP)) | Ki (human α-thrombin) | SMILES
< 0.5 µM | < 0.5 µM | Cc1cc(F)cc(CNc2ncc3n(c2=O)[C@H](C(=O)NCc2ccc(N)c(Cl)c2)CC3)c1 [Compound 188, (S)-N-(4-amino-3-chlorobenzyl)-3-((3-fluoro-5-methylbenzyl)amino)-4-oxo-4,6,7,8-tetrahydropyrrolo[1,2-a]pyrazine-6-carboxamide]
< 0.5 µM | 0.5 to 2.5 µM | Cc1cc(C)cc(CNc2ncc3n(c2=O)[C@H](C(=O)NCc2cnc(N)c(Cl)c2)CC3)c1 [Compound 189, (S)-N-((6-amino-5-chloropyridin-3-yl)methyl)-3-((3,5-dimethylbenzyl)amino)-4-oxo-4,6,7,8-tetrahydropyrrolo[1,2-a]pyrazine-6-carboxamide]
< 0.5 µM | 2.5 to 10 µM | Cc1cc(F)cc(CNc2ncc3n(c2=O)[C@H](C(=O)N[C@H](C)c2ccc(N)nc2)CC3)c1 [Compound 191, (S)-N-((R)-1-(6-aminopyridin-3-yl)ethyl)-3-((3-fluoro-5-methylbenzyl)amino)-4-oxo-4,6,7,8-tetrahydropyrrolo[1,2-a]pyrazine-6-carboxamide trifluoroacetate]
< 0.5 µM | 0.5 to 2.5 µM | Cc1cc(F)cc(CNc2ncc3n(c2=O)[C@H](C(=O)NCc2cnc(N)c(Cl)c2)CC3)c1 [Compound 192, (S)-N-((6-amino-5-chloropyridin-3-yl)methyl)-3-((3-fluoro-5-methylbenzyl)amino)-4-oxo-4,6,7,8-tetrahydropyrrolo[1,2-a]pyrazine-6-carboxamide trifluoroacetate]
< 0.5 µM | 2.5 to 10 µM | Cc1ccc(C)c(CNc2ncc3n(c2=O)[C@H](C(=O)N[C@H](C)c2ccc(N)nc2)CC3)c1 [Compound 193, (S)-N-((R)-1-(6-aminopyridin-3-yl)ethyl)-3-((2,5-dimethylbenzyl)amino)-4-oxo-4,6,7,8-tetrahydropyrrolo[1,2-a]pyrazine-6-carboxamide trifluoroacetate]
< 0.5 µM | 2.5 to 10 µM | CCc1cccc(CNc2ncc3n(c2=O)[C@H](C(=O)N[C@H](C)c2ccc(N)nc2)CC3)c1 [Compound 195, (S)-N-((R)-1-(6-aminopyridin-3-yl)ethyl)-3-((3-ethylbenzyl)amino)-4-oxo-4,6,7,8-tetrahydropyrrolo[1,2-a]pyrazine-6-carboxamide trifluoroacetate]
< 0.5 µM | 10 to 25 µM | Cc1ccc(F)cc1CNc1ncc2n(c1=O)[C@H](C(=O)N[C@H](C)c1ccc(N)nc1)CC2 [Compound 196, (S)-N-((R)-1-(6-aminopyridin-3-yl)ethyl)-3-((5-fluoro-2-methylbenzyl)amino)-4-oxo-4,6,7,8-tetrahydropyrrolo[1,2-a]pyrazine-6-carboxamide trifluoroacetate]
< 0.5 µM | 2.5 to 10 µM | Cc1cc(C)cc(CNc2ncc3n(c2=O)[C@H](C(=O)N[C@H](C)c2ccc(N)nc2)CC3)c1 [Compound 198, (S)-N-((R)-1-(6-aminopyridin-3-yl)ethyl)-3-((3,5-dimethylbenzyl)amino)-4-oxo-4,6,7,8-tetrahydropyrrolo[1,2-a]pyrazine-6-carboxamide trifluoroacetate]
< 0.5 µM | 2.5 to 10 µM | Cc1ccc(F)c(CNc2ncc3n(c2=O)[C@H](C(=O)N[C@H](C)c2ccc(N)nc2)CC3)c1 [Compound 199, (S)-N-((R)-1-(6-aminopyridin-3-yl)ethyl)-3-((2-fluoro-5-methylbenzyl)amino)-4-oxo-4,6,7,8-tetrahydropyrrolo[1,2-a]pyrazine-6-carboxamide trifluoroacetate]
< 0.5 µM | 2.5 to 10 µM | COc1cc(F)cc(CNc2ncc3n(c2=O)[C@H](C(=O)N[C@H](C)c2ccc(N)nc2)CC3)c1 [Compound 200, (S)-N-((R)-1-(6-aminopyridin-3-yl)ethyl)-3-((3-fluoro-5-methoxybenzyl)amino)-4-oxo-4,6,7,8-tetrahydropyrrolo[1,2-a]pyrazine-6-carboxamide trifluoroacetate]
< 0.5 µM | > 25 µM | C[C@@H](NC(=O)[C@@H]1CCc2cnc(NCc3cccc(-c4ccccc4)c3)c(=O)n21)c1ccc(N)nc1 [Compound 201, (S)-3-(([1,1′-biphenyl]-3-ylmethyl)amino)-N-((R)-1-(6-aminopyridin-3-yl)ethyl)-4-oxo-4,6,7,8-tetrahydropyrrolo[1,2-a]pyrazine-6-carboxamide]
